We go through eight molecules from patent US9493426B2, “Quinazolinone derivatives useful as FGFR kinase modulators” (priority 2013, dated 2016).

Like-named read-outs stand apart in the source and are kept apart here.

Data set [1] deals with T1, Ba/F3-FGFR1-transfected cells (Homo sapiens, UniProt P11362).
T1 construct: other: minus IL3; 24 hours, Alamar Blue
Description: Ba/F3-FGFR1 (minus IL3 or plus IL3) cellular proliferation assay. Format: cell-based. The settings on record: 24 hours, Alamar Blue. Here is the method:
Ba/F3-FGFR1 (Minus IL3 or Plus IL3) (Cellular Proliferation Assay)
(§1) In a 384 well plate, 100 nl of compound dilution in DMSO was sprayed before adding 50 μl cell culture medium (phenol red free RPMI-1640, 10% FBS, 2 mM L-Glutamine and 50 μg/ml Gentamycin) containing 20000 cells per well of Ba/F3-FGFR1-transfected cells. Cells were put in an incubator at 37° C. and 5% CO2. After 24 hours, 10 μl of Alamar Blue solution (0.5 mM K3Fe(CN)6, 0.5 mM K4Fe(CN)6, 0.15 mM Resazurin and 100 mM Phosphate Buffer) was added to the wells, incubated for 4 hours at 37° C. and 5% CO2 before RFU's (Relative Fluorescence Units) (ex. 540 nm., em. 590 nm.) were measured in a fluorescence plate reader.
(§2) In this assay, the inhibitory effect of different compound concentrations (range 10 μM to 0.1 nM) was determined and used to calculate an IC50 (M) and pIC50 (−log IC50) value. As a counterscreen the same experiment was performed in the presence of 10 ng/ml murine IL3.

A further data set deals with FGFR2 (h) (Homo sapiens, UniProt P21802). Description: FGFR2 (enzymatic assay), TR-FRET. Format: biochemical.
The next data set deals with FGFR1 (h) (Homo sapiens, UniProt P11362). Description: FGFR1 (enzymatic assay), TR-FRET. The data set is classed as biochemical.
In data set [2] the target is T2, Ba/F3-KDR-transfected cells (Homo sapiens, UniProt P35968, cells depend on it, form not given).
T2 construct: BAF3-KDR (MIN IL3 pIC50); other: minus IL3; 24 hours, Alamar Blue
Nature of the data set: Ba/F3-KDR (minus IL3 or plus IL3) cellular proliferation assay. The data set is classed as cell-based. The following applies: 24 hours, Alamar Blue. Here is the method:
Ba/F3-KDR (Minus IL3 or Plus IL3) (Cellular Proliferation Assay)
as §1, with “Ba/F3-KDR-transfected” for “Ba/F3-FGFR1-transfected”
as §2

In the next data set the target is FGFR4 (h) (Homo sapiens, UniProt P22455). Nature of the data set: FGFR4 (enzymatic assay), TR-FRET. The data set is classed as biochemical. The following applies: 5 μM ATP; pIC50 = -log IC50 (M); read-out: FGFR 4 pIC50 (converted).
Data set [3] deals with T3, Ba/F3-FGFR3-transfected cells (Homo sapiens, UniProt P22607, cells depend on it, form not given).
T3 construct: BAF3-FGFR3 (MIN IL3 pIC50); other: minus IL3; 24 hours, Alamar Blue
Nature of the data set: Ba/F3-FGFR3 (minus IL3 or plus IL3) cellular proliferation assay. The data set is classed as cell-based. The following applies: 24 hours, Alamar Blue. As for the experimental part:
Ba/F3-FGFR3 (Minus IL3 or Plus IL3) (Cellular Proliferation Assay)
as §1, with “Ba/F3-FGFR3-transfected” for “Ba/F3-FGFR1-transfected”
as §2

The target in a further data set is KDR (h) (Homo sapiens, UniProt P35968). Description: KDR (VEGFR2) (enzymatic assay), TR-FRET. The data set is classed as biochemical. The following applies: 3 μM ATP; pIC50 = -log IC50 (M); read-out: VEGFR KDR pIC50 (converted). Here is the method: KDR (VEGFR2) (Enzymatic Assay)
In a final reaction volume of 30 μL, KDR (h) (150 ng/ml) was incubated with 50 mM HEPES pH 7.5, 6 mM MnCl2, 1 mM DTT, 0.1 mM Na3VO4, 0.01% Triton-X-100, 500 nM Btn-Flt3 and 3 μM ATP in the presence of compound (1% DMSO final). After incubation for 120 minutes at room temperature the reaction was stopped with 2.27 nM EU-anti P-Tyr, 7 mM EDTA, 31.25 nM SA-XL-665 and 0.02% BSA which was present for 60 minutes at room temperature. Time-Resolved Fluorescence Resonance Energy Transfer (TR-FRET) signal (ex340 nm. Em 620 nm, em 655 nm) was measured afterwards and results are expressed in RFU (Relative Fluorescence Units). In this assay, the inhibitory effect of different compound concentrations (range 10 μM to 0.1 nM) was determined and used to calculate an IC50 (M) and pIC50 (−log IC50) value.

The next data set has as its target FGFR3 (h) (Homo sapiens, UniProt P22607). Description: FGFR3 (enzymatic assay), TR-FRET. Format: biochemical.
For data set [4], the target named is Ba/F3-FGFR4-transfected cells (Homo sapiens, UniProt P22455, cells depend on it, form not given). Nature of the data set: Ba/F3-FGFR4 cellular proliferation assay. Format: cell-based. The settings on record: 24 hours, Alamar Blue. As for the experimental part:
Ba/F3-FGFR4 (Cellular Proliferation Assay)
as §1, with “Ba/F3-FGFR4-transfected” for “Ba/F3-FGFR1-transfected”
In this assay, the inhibitory effect of different compound concentrations (range 10 μM to 0.1 nM) was determined and used to calculate an IC50 (M) and pIC50 (−log IC50) value.

[5] abbreviates: 0.4 μM ATP, pIC50 = -log IC50 (M), read-out: FGFR 2 pIC50 (converted).
Where [6] appears, read: 25 μM ATP, pIC50 = -log IC50 (M), read-out: FGFR3 pIC50 (converted).

T2 sequence (P35968 whole entry, looked up, change not shown): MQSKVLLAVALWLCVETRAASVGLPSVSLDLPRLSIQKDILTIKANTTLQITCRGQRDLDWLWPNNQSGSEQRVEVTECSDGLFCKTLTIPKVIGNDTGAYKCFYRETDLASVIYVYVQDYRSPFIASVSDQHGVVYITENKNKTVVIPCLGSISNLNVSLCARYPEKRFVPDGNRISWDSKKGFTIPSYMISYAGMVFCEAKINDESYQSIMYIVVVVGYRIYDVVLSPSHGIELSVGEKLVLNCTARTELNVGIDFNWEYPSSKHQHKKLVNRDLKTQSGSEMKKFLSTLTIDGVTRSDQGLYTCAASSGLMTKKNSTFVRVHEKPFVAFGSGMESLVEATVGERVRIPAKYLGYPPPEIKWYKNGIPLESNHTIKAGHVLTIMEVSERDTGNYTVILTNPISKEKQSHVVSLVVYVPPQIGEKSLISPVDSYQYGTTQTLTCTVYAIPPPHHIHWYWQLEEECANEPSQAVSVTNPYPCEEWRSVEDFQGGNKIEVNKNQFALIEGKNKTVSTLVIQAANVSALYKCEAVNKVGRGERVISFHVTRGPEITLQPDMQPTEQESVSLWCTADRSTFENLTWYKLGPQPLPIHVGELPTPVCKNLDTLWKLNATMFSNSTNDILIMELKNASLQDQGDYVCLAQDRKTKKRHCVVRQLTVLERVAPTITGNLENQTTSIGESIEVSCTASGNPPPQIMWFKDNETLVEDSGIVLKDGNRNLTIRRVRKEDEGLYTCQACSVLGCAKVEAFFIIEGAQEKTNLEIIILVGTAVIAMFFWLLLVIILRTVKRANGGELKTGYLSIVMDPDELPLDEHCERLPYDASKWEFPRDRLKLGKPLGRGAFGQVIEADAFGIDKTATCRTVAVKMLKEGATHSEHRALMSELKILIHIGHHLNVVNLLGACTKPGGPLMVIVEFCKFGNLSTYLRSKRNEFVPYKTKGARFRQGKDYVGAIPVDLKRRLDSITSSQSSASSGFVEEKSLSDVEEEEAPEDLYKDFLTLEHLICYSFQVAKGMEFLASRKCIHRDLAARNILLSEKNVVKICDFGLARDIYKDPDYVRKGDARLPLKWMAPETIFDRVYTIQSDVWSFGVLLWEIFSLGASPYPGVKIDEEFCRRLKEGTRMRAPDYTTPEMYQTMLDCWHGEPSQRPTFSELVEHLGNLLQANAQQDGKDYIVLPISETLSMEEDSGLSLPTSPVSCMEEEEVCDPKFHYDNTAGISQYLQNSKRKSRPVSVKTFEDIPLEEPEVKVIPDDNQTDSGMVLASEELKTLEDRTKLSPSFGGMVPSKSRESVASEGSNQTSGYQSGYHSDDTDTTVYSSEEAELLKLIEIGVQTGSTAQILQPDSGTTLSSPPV
FGFR3 (h), sequence (P22607 23-806): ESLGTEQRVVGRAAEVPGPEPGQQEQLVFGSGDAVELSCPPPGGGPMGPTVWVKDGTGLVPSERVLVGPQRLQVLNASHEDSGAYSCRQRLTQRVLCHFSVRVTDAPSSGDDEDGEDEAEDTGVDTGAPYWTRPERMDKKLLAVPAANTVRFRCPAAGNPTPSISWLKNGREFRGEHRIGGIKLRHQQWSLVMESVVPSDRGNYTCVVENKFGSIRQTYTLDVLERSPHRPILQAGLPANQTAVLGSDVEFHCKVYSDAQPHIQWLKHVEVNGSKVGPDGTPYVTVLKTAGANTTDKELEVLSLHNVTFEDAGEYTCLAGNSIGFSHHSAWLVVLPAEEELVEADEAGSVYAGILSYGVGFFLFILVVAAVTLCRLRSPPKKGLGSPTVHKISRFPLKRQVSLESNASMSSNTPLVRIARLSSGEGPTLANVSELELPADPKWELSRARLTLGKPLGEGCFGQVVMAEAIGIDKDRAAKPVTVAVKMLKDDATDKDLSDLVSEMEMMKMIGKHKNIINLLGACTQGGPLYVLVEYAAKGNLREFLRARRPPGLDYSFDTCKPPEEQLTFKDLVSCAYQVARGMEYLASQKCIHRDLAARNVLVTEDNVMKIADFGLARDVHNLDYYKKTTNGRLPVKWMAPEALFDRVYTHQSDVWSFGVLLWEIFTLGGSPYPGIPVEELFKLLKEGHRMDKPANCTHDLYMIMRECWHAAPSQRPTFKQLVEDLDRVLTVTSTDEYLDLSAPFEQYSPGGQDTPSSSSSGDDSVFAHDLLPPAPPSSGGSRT
FGFR1 (h), sequence (P11362 22-822): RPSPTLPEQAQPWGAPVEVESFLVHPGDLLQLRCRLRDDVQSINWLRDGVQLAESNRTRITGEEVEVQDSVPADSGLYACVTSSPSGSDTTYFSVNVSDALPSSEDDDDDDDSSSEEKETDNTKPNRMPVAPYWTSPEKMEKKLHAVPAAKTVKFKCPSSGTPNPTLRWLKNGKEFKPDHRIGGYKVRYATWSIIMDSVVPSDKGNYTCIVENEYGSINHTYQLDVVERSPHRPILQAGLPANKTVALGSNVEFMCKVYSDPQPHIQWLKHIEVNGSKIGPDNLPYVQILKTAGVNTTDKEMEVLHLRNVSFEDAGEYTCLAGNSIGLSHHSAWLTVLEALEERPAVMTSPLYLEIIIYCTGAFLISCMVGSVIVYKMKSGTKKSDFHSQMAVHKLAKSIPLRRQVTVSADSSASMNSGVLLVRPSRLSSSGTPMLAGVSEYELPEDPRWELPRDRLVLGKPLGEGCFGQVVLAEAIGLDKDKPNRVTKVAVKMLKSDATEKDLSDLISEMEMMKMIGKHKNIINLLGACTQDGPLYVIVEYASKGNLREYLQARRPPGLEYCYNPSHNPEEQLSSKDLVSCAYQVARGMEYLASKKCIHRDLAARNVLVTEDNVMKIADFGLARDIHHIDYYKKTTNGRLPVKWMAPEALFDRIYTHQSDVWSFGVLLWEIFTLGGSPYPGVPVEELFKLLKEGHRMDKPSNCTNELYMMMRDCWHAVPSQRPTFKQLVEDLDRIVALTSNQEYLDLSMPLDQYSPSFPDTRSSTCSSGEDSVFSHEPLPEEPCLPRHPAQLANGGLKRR
FGFR2 (h), sequence (P21802 22-821): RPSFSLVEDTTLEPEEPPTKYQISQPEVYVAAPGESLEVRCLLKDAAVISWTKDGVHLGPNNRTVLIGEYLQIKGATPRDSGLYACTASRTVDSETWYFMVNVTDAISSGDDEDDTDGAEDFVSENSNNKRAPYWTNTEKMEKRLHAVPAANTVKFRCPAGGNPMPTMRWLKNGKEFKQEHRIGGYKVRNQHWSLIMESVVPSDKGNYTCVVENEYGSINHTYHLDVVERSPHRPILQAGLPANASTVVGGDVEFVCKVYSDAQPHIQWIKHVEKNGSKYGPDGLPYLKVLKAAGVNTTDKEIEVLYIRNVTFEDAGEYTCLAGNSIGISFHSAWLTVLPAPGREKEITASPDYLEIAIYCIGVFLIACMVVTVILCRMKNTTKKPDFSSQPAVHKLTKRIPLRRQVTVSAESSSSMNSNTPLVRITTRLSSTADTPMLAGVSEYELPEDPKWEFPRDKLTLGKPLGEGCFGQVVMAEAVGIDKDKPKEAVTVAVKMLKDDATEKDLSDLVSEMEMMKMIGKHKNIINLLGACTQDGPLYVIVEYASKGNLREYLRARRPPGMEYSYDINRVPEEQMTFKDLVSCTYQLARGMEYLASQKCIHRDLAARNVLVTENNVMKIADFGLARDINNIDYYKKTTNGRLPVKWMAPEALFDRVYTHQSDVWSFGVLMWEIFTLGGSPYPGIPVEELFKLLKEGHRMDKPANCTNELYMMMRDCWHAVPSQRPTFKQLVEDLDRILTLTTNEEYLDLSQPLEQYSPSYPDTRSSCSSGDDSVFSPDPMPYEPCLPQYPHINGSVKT
T1 sequence (P11362 whole entry, change not shown): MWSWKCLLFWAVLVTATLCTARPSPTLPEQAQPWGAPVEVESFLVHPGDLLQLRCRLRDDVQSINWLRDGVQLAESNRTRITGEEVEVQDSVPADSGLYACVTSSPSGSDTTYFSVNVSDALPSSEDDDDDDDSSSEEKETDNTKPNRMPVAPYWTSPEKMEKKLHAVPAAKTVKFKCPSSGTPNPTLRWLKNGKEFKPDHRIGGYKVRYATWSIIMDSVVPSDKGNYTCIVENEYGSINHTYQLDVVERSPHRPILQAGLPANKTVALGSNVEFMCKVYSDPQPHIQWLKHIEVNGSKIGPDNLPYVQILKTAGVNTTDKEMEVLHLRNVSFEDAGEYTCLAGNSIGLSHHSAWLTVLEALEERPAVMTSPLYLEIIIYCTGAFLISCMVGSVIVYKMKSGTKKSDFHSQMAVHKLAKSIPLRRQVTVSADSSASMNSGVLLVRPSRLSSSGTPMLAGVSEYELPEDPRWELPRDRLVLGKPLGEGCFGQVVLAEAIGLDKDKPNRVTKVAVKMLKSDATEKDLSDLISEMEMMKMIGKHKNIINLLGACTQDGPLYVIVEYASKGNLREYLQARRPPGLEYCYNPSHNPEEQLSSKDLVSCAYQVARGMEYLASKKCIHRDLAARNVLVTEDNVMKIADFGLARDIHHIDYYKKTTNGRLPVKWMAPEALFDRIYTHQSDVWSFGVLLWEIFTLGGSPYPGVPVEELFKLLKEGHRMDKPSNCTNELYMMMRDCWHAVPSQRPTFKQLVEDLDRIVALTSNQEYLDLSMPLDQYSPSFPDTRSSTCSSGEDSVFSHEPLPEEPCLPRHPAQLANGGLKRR

`COc1cc(OC)c(F)c(N(Cc2ncc[nH]2)c2ccc3ncn(-c4cnn(C)c4)c(=O)c3c2)c1F` [Compound 22] yielded a melting point of 231 °C. Besides, the “BAF3-FGFR1 (MIN IL3 pIC50)” value in data set [1] was determined as 6.8. Further, the IC50 on FGFR2 (h) (setting [5]) is 5.01e-09 M. Also, the IC50 on FGFR1 (h) was 3.98 nM. Further, the “BAF3-KDR (MIN IL3 pIC50)” value in [2] came to 5.3. Also, the IC50 at FGFR4 (h) is 5.01e-09 M. Further, the “BAF3-FGFR3 (MIN IL3 pIC50)” value in data set [3] is listed as 7.4. Besides, the IC50 on KDR (h) is 1.26e-07 M. The IC50 on FGFR3 (h) (setting [6]) is 3.16e-09 M. In addition, the “BAF3-FGFR4 (pIC50)” value in data set [4] is on record as 6.7.
Regarding `COc1cc(OC)c(F)c(N(CCO)c2ccc3ncn(-c4cnn(C)c4)c(=O)c3c2)c1F` [Compound 18], the melting point was 165 °C. Moreover, the “BAF3-FGFR1 (MIN IL3 pIC50)” value in [1] came out at 7.2. Moreover, the IC50 at FGFR2 (h) (setting [5]) is 2.51e-09 M. The IC50 against FGFR1 (h) was 1.58 nM. Also, the “BAF3-KDR (MIN IL3 pIC50)” value in [2] worked out at 5.6. Moreover, the IC50 on FGFR4 (h) is 5.01e-09 M. Further, in data set [3], the “BAF3-FGFR3 (MIN IL3 pIC50)” value is about 7.68. Moreover, the IC50 on KDR (h) is 3.98e-08 M. Besides, the IC50 against FGFR3 (h) is 1.58e-09 M. The “BAF3-FGFR4 (pIC50)” value in [4] is given as 6.6.
`COc1cc(OC)c(F)c(N(CCO)c2ccc3ncn(-c4ccccc4)c(=O)c3c2)c1F` [Compound 1]: the melting point came out at 169 °C. Moreover, the “BAF3-FGFR1 (MIN IL3 pIC50)” value in data set [1] is 6.0. At FGFR2 (h) (setting [5]), the IC50 was 6.31e-09 M. For the same molecule, the IC50 against FGFR1 (h) is 10 nM. The “BAF3-KDR (MIN IL3 pIC50)” value in data set [2] is on record as about 5. The IC50 on FGFR4 (h) was 3.98e-08 M. For the same molecule, the “BAF3-FGFR3 (MIN IL3 pIC50)” value in [3] amounted to 6.4. Further, the IC50 on KDR (h) is 2.51e-07 M. Further, the IC50 on FGFR3 (h) (setting [6]) was 6.31e-09 M. Moreover, the “BAF3-FGFR4 (pIC50)” value in [4] was determined as 5.6.
As for `COc1cc(OC)c(F)c(N(CCO)c2ccc3ncn(-c4ccccc4)c(=O)c3c2)c1` [Compound 6], the melting point was 183 °C. Also, the “BAF3-FGFR1 (MIN IL3 pIC50)” value in data set [1] turned out to be 5.5. In addition, at FGFR2 (h) (setting [5]), the IC50 was 5.01e-08 M. The molecule also had an IC50 against FGFR1 (h) of 79.4 nM. Moreover, the “BAF3-KDR (MIN IL3 pIC50)” value in [2] was under 5. The IC50 at FGFR4 (h) was 3.16e-07 M. Further, the “BAF3-FGFR3 (MIN IL3 pIC50)” value in [3] is on record as 5.5. Also, the IC50 on KDR (h) was over 1e-06 M. For the same molecule, the IC50 on FGFR3 (h) is 3.98e-08 M. The “BAF3-FGFR4 (pIC50)” value in data set [4] turned out to be 5.0.
`COc1cc(OC)c(Cl)c(N(CCNC(C)C)c2ccc3ncn(-c4cnn(C)c4)c(=O)c3c2)c1Cl` [Compound 11] registered a melting point of 195 °C. The “BAF3-FGFR1 (MIN IL3 pIC50)” value in data set [1] was found to be 7.4. Further, the IC50 at FGFR2 (h) (setting [5]) was 6.31e-08 M. Further, on FGFR1 (h), the IC50 was 12.6 nM. Besides, in [2], the “BAF3-KDR (MIN IL3 pIC50)” value was 5.4. The IC50 on FGFR4 (h) was 1.58e-07 M. Besides, the “BAF3-FGFR3 (MIN IL3 pIC50)” value in [3] was found to be 7.3. Further, at KDR (h), the IC50 is 5.01e-07 M. In addition, at FGFR3 (h) (setting [6]), the IC50 is 3.98e-08 M. Also, the “BAF3-FGFR4 (pIC50)” value in data set [4] is recorded as 6.3.
`COc1cc(OC)cc(N(CCNC(C)C)c2ccc3ncn(-c4cnn(C)c4)c(=O)c3c2)c1` [Compound 9] came in with a melting point of 142 °C. The “BAF3-FGFR1 (MIN IL3 pIC50)” value in data set [1] was 7.2. Also, at FGFR2 (h) (setting [5]), the IC50 was 6.31e-09 M. Also, the IC50 at FGFR1 (h) is 5.01 nM. Also, in data set [2], the “BAF3-KDR (MIN IL3 pIC50)” value turned out to be 5.2. Moreover, the IC50 on FGFR4 (h) was 5.01e-08 M. Also, the “BAF3-FGFR3 (MIN IL3 pIC50)” value in data set [3] was about 7.09. In addition, the IC50 on KDR (h) was 5.01e-07 M. In addition, at FGFR3 (h) (setting [6]), the IC50 was 1e-08 M. The “BAF3-FGFR4 (pIC50)” value in [4] is listed as 6.2.
In the case of `COc1cc(OC)c(F)c(N(Cc2ncc[nH]2)c2ccc3ncn(-c4cnn(C)c4)c(=O)c3c2)c1` [Compound 15], the melting point is 212 °C. Besides, the “BAF3-FGFR1 (MIN IL3 pIC50)” value in data set [1] worked out at 6.7. The molecule also showed an IC50 at FGFR2 (h) of 5.01e-09 M. The IC50 at FGFR1 (h) is 5.01 nM. Moreover, the “BAF3-KDR (MIN IL3 pIC50)” value in data set [2] is given as under 5. On FGFR4 (h), the IC50 is 7.94e-09 M. Moreover, the “BAF3-FGFR3 (MIN IL3 pIC50)” value in data set [3] is reported as about 7.15. The IC50 at KDR (h) was 3.98e-07 M. Also, on FGFR3 (h) (setting [6]), the IC50 is 2.51e-09 M. The “BAF3-FGFR4 (pIC50)” value in [4] came out at 5.8.
Molecule `COc1cc(OC)c(F)c(N(CCNC(C)C)c2ccc3ncn(-c4cnn(C)c4)c(=O)c3c2)c1` [Compound 17] returned a melting point of 132 °C. Besides, the “BAF3-FGFR1 (MIN IL3 pIC50)” value in [1] was determined as 7.6. The IC50 on FGFR2 (h) (setting [5]) was 1e-08 M. The molecule also showed an IC50 against FGFR1 (h) of 7.94 nM. Besides, the “BAF3-KDR (MIN IL3 pIC50)” value in data set [2] was 5.5. On FGFR4 (h), the IC50 is 3.16e-08 M. Further, the “BAF3-FGFR3 (MIN IL3 pIC50)” value in [3] is 7.7. In addition, the IC50 at KDR (h) is 1.26e-07 M. In addition, the IC50 at FGFR3 (h) (setting [6]) was 1.58e-08 M. Also, the “BAF3-FGFR4 (pIC50)” value in data set [4] is on record as 6.8.
